Reference: ChEMBL document CHEMBL1909046, “DrugMatrix in vitro pharmacology data”

Key:
[1] = DRUGMATRIX: Calcium Channel Type L, Phenylalkylamine radioligand binding (ligand: [3H] (-)-Desmethoxyverapamil (D-888)); type: cell membranes, Rattus norvegicus, Wistar, Brain, Membrane; conditions: Not Active = under 50% inhibition at 10 µM
[2] = molecular target: T1, C-X-C chemokine receptor type 1 (Homo sapiens, UniProt P25024); note: in other assays of this panel Not Active means under 50% inhibition at 10 µM
T1 sequence (P25024 whole entry): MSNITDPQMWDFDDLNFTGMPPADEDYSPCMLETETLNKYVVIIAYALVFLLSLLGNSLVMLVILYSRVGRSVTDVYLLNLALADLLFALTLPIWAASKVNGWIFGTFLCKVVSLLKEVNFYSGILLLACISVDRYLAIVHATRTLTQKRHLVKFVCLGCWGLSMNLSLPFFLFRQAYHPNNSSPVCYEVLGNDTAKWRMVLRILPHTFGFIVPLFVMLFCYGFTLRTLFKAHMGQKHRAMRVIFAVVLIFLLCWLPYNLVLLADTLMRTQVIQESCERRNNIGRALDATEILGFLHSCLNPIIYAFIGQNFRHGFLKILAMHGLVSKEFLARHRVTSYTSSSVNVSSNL

[3] = DRUGMATRIX: Imidazoline I2, Central radioligand binding (ligand: [3H] Idazoxan); type: cell membranes, Rattus norvegicus, Wistar, Cerebral cortex, Membrane; conditions: Not Active = under 50% inhibition at 10 µM
Melanocortin receptor 4 = Melanocortin receptor 4 (Homo sapiens, UniProt P32245); type: cell membranes, Membrane; conditions: hek293; note: in other assays of this panel Not Active means under 50% inhibition at 10 µM
Melanocortin receptor 4, sequence (P32245 whole entry): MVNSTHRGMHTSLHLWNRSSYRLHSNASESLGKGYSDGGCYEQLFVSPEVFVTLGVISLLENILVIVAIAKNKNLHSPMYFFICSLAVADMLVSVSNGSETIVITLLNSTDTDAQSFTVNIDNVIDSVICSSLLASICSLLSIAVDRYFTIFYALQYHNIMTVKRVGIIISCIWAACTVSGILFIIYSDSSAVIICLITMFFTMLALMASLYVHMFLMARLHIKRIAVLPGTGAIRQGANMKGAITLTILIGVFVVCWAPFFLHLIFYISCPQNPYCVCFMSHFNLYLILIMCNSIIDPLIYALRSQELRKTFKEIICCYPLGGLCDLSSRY

[4] = DRUGMATRIX: Phorbol Ester radioligand binding (ligand: [3H] PDBu); type: cell membranes, Mus musculus, ICR, Brain, Membrane; conditions: Not Active = under 50% inhibition at 10 µM
[5] = molecular target: Mitogen-activated protein kinase 3 (Homo sapiens, UniProt P27361); experiment: DRUGMATRIX: Protein Serine/Threonine Kinase, ERK1 enzyme inhibition (substrate: Myelin Basic Protein); set-up: species or system Escherichia coli; conditions: Not Active = under 50% inhibition at 10 µM
Mitogen-activated protein kinase 3, sequence (P27361 whole entry): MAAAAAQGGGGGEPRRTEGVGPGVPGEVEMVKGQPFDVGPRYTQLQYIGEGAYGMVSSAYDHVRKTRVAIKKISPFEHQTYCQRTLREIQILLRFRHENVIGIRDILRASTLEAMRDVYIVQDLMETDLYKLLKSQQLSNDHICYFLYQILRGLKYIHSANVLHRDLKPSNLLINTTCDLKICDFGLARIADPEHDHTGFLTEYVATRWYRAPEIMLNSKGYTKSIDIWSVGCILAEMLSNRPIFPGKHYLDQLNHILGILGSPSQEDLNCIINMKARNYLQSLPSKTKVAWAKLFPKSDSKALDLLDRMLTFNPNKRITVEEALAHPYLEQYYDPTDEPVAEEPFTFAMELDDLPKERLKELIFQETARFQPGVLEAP

[6] = molecular target: Receptor tyrosine-protein kinase erbB-2 (Homo sapiens, UniProt P04626); experiment: biochemical; type: cell-based, Insect cells; conditions: insect cells;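 note: inhibition of HER2 kinase enzyme activity, measured with Poly(Glu:Tyr) as the phosphorylation substrate; in other assays of this panel Not Active means under 50% inhibition at 10 µM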
Receptor tyrosine-protein kinase erbB-2, sequence (P04626 whole entry): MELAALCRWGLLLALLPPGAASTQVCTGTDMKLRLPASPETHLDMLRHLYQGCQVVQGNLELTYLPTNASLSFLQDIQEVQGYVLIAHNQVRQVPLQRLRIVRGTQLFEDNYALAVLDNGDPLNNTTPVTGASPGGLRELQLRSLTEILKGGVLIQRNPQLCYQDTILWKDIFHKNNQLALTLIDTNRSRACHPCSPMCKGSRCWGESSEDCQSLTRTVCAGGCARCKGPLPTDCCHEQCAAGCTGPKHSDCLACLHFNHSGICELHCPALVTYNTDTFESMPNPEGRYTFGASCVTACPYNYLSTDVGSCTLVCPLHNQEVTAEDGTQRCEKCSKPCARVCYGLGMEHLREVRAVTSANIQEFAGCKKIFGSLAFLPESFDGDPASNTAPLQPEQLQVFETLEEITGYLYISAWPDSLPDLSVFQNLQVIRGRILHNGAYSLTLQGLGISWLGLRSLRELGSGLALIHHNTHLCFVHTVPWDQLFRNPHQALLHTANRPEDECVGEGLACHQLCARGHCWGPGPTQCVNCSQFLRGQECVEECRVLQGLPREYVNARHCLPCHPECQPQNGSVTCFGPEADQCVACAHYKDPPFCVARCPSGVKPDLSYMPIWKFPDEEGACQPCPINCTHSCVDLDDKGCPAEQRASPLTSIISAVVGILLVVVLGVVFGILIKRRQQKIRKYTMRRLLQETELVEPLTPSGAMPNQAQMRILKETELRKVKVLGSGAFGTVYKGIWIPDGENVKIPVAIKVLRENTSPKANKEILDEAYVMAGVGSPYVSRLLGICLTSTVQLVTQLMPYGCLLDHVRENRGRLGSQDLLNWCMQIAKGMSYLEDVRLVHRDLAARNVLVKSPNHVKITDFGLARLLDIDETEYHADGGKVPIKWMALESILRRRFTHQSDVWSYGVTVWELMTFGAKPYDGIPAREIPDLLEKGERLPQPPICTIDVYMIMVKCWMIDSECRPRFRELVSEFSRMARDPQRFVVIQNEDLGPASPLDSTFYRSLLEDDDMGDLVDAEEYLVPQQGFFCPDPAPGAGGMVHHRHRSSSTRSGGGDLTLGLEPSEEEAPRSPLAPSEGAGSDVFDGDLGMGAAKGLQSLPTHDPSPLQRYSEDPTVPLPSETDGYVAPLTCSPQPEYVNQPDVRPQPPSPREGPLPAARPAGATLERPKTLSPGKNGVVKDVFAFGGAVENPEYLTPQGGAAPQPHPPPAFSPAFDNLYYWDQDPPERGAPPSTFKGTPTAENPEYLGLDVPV

Estrogen receptor beta = Estrogen receptor beta (Homo sapiens, UniProt Q92731); conditions: sf9; note: in other assays of this panel Not Active means under 50% inhibition at 10 µM
Estrogen receptor beta, sequence (Q92731 whole entry): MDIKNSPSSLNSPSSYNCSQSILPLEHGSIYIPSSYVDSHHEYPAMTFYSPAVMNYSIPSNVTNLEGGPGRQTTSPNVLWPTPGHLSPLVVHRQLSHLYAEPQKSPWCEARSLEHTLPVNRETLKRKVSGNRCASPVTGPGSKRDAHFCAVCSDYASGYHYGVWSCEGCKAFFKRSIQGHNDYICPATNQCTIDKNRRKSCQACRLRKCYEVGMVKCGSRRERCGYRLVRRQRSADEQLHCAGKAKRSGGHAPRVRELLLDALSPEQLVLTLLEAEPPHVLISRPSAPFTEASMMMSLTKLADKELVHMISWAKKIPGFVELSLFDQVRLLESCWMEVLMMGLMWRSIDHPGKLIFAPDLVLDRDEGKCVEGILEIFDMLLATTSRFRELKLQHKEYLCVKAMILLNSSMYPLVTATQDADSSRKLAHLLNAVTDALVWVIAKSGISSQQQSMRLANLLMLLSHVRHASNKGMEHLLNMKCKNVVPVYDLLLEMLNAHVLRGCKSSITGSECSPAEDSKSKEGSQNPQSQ

COc1ccccc1C(=O)N1CCC(Cc2ccccc2)CC1
Not Active: IC50 [1] | Ki [1] | IC50 [2] | IC50 [3] | Ki [3] | IC50 (Melanocortin receptor 4) | IC50 [4] | Ki [4] | IC50 [5] | IC50 [6] | IC50 (Estrogen receptor beta)

O=C1CC[C@H](N2C(=O)c3ccccc3C2=O)C(=O)N1
Not Active: IC50 [1] | Ki [1] | IC50 [2] | IC50 [3] | Ki [3] | IC50 (Melanocortin receptor 4) | IC50 [4] | Ki [4] | IC50 [5] | IC50 [6] | IC50 (Estrogen receptor beta)

N=C(Nc1ccccc1)Nc1ccccc1
Not Active: IC50 [1] | Ki [1] | IC50 [2] | IC50 [3] | Ki [3] | IC50 (Melanocortin receptor 4) | IC50 [4] | Ki [4] | IC50 [5] | IC50 [6] | IC50 (Estrogen receptor beta)

CN1C(=O)COc2c(C(=O)NC3CN4CCC3CC4)cc(Cl)cc21 (configuration not stated) [AZASETRON]
Not Active: IC50 [1] | Ki [1] | IC50 [2] | IC50 [3] | Ki [3] | IC50 (Melanocortin receptor 4) | IC50 [4] | Ki [4] | IC50 [5] | IC50 [6]

C[C@H]1C[C@H]2[C@@H]3CCC4=CC(=O)C=C[C@]4(C)[C@@]3(Cl)[C@@H](O)C[C@]2(C)[C@@]1(O)C(=O)CO [BECLOMETHASONE]
Not Active: IC50 [1] | Ki [1] | IC50 [2] | IC50 [3] | Ki [3] | IC50 (Melanocortin receptor 4) | IC50 [4] | Ki [4] | IC50 [5] | IC50 [6]

O=C1CC2(CCCC2)CC(=O)N1CCCCN1CCN(c2ncccn2)CC1 [BUSPIRONE]
Not Active: IC50 [1] | Ki [1] | IC50 [2] | IC50 [3] | Ki [3] | IC50 (Melanocortin receptor 4) | IC50 [4] | Ki [4] | IC50 [5] | IC50 [6]

C[C@@]12C(=O)OC(=O)[C@]1(C)[C@H]1CC[C@@H]2O1 [CANTHARIDIN]
Not Active: IC50 [1] | Ki [1] | IC50 [2] | IC50 [3] | Ki [3] | IC50 (Melanocortin receptor 4) | IC50 [4] | Ki [4] | IC50 [5] | IC50 [6]

C[N+](C)(C)CCO.[Cl-] [CHOLINE CHLORIDE]
Not Active: IC50 [1] | Ki [1] | IC50 [2] | IC50 [3] | Ki [3] | IC50 (Melanocortin receptor 4) | IC50 [4] | Ki [4] | IC50 [5] | IC50 [6]

C/C=C/C[C@@H](C)[C@@H](O)[C@H]1C(=O)N[C@@H](CC)C(=O)N(C)CC(=O)N(C)[C@@H](CC(C)C)C(=O)N[C@@H](C(C)C)C(=O)N(C)[C@@H](CC(C)C)C(=O)N[C@@H](C)C(=O)N[C@H](C)C(=O)N(C)[C@@H](CC(C)C)C(=O)N(C)[C@@H](CC(C)C)C(=O)N(C)[C@@H](C(C)C)C(=O)N1C [CYCLOSPORINE]
Not Active: IC50 [1] | Ki [1] | IC50 [2] | IC50 [3] | Ki [3] | IC50 (Melanocortin receptor 4) | IC50 [4] | Ki [4] | IC50 [5] | IC50 [6]

CC(=O)Nc1c(I)c(NC(C)=O)c(I)c(C(=O)O)c1I [DIATRIZOIC ACID]
Not Active: IC50 [1] | Ki [1] | IC50 [2] | IC50 [3] | Ki [3] | IC50 (Melanocortin receptor 4) | IC50 [4] | Ki [4] | IC50 [5] | IC50 [6]

C[C@]12CC[C@@H]3c4ccc(O)cc4CC[C@H]3[C@@H]1CC[C@@H]2O [ESTRADIOL]
Not Active: IC50 [1] | Ki [1] | IC50 [2] | IC50 [3] | Ki [3] | IC50 (Melanocortin receptor 4) | IC50 [4] | Ki [4] | IC50 [5] | IC50 [6]

CC1(C)O[C@@H]2C[C@H]3[C@@H]4C[C@H](F)C5=CC(=O)C=C[C@]5(C)[C@@]4(F)[C@@H](O)C[C@]3(C)[C@]2(C(=O)CO)O1 [FLUOCINOLONE ACETONIDE]
Not Active: IC50 [1] | Ki [1] | IC50 [2] | IC50 [3] | Ki [3] | IC50 (Melanocortin receptor 4) | IC50 [4] | Ki [4] | IC50 [5] | IC50 [6]

Cc1ccc(S(=O)(=O)NC(=O)NN2CC3CCCC3C2)cc1 (configuration not stated) [GLICLAZIDE]
Not Active: IC50 [1] | Ki [1] | IC50 [2] | IC50 [3] | Ki [3] | IC50 (Melanocortin receptor 4) | IC50 [4] | Ki [4] | IC50 [5] | IC50 [6]

COc1ccc2c(c1)c(CC(=O)O)c(C)n2C(=O)c1ccc(Cl)cc1 [INDOMETHACIN]
Not Active: IC50 [1] | Ki [1] | IC50 [2] | IC50 [3] | Ki [3] | IC50 (Melanocortin receptor 4) | IC50 [4] | Ki [4] | IC50 [5] | IC50 [6]

C#C[C@]1(O)CC[C@H]2[C@@H]3CCc4cc(OC)ccc4[C@H]3CC[C@@]21C [MESTRANOL]
Not Active: IC50 [1] | Ki [1] | IC50 [2] | IC50 [3] | Ki [3] | IC50 (Melanocortin receptor 4) | IC50 [4] | Ki [4] | IC50 [5] | IC50 [6]

Cc1ncc([N+](=O)[O-])n1CCO [METRONIDAZOLE]
Not Active: IC50 [1] | Ki [1] | IC50 [2] | IC50 [3] | Ki [3] | IC50 (Melanocortin receptor 4) | IC50 [4] | Ki [4] | IC50 [5] | IC50 [6]

CC(C)(C(=O)c1cccnc1)c1cccnc1 [METYRAPONE]
Not Active: IC50 [1] | Ki [1] | IC50 [2] | IC50 [3] | Ki [3] | IC50 (Melanocortin receptor 4) | IC50 [4] | Ki [4] | IC50 [5] | IC50 [6]

COc1ccc2cc([C@H](C)C(=O)O)ccc2c1 [NAPROXEN]
Not Active: IC50 [1] | Ki [1] | IC50 [2] | IC50 [3] | Ki [3] | IC50 (Melanocortin receptor 4) | IC50 [4] | Ki [4] | IC50 [5] | IC50 [6]

COC(=O)C1=C(C)NC(C)=C(C(=O)OCC(C)C)C1c1ccccc1[N+](=O)[O-] (configuration not stated) [NISOLDIPINE]
Not Active: IC50 [1] | Ki [1] | IC50 [2] | IC50 [3] | Ki [3] | IC50 (Melanocortin receptor 4) | IC50 [4] | Ki [4] | IC50 [5] | IC50 [6]

O=C(C1CCCCC1)N1CC(=O)N2CCc3ccccc3C2C1 (configuration not stated) [PRAZIQUANTEL]
Not Active: IC50 [1] | Ki [1] | IC50 [2] | IC50 [3] | Ki [3] | IC50 (Melanocortin receptor 4) | IC50 [4] | Ki [4] | IC50 [5] | IC50 [6]

CCN(CC)CCOC(=O)c1ccc(N)cc1 [PROCAINE]
Not Active: IC50 [1] | Ki [1] | IC50 [2] | IC50 [3] | Ki [3] | IC50 (Melanocortin receptor 4) | IC50 [4] | Ki [4] | IC50 [5] | IC50 [6]

CCCN(CCC)C(=O)C(CCC(=O)O)NC(=O)c1ccccc1 (configuration not stated) [PROGLUMIDE]
Not Active: IC50 [1] | Ki [1] | IC50 [2] | IC50 [3] | Ki [3] | IC50 (Melanocortin receptor 4) | IC50 [4] | Ki [4] | IC50 [5] | IC50 [6]

Cc1cc2cc3c(C)cc(=O)oc3c(C)c2o1 [TRIOXSALEN]
Not Active: IC50 [1] | Ki [1] | IC50 [2] | IC50 [3] | Ki [3] | IC50 (Melanocortin receptor 4) | IC50 [4] | Ki [4] | IC50 [5] | IC50 [6]

CCCC(CCC)C(=O)O [VALPROIC ACID]
Not Active: IC50 [1] | Ki [1] | IC50 [2] | IC50 [3] | Ki [3] | IC50 (Melanocortin receptor 4) | IC50 [4] | Ki [4] | IC50 [5] | IC50 [6]

CCC1=C[C@@H]2CN(C1)Cc1c([nH]c3ccccc13)[C@@](C(=O)OC)(c1cc3c(cc1OC)N(C)[C@H]1[C@@](O)(C(=O)OC)[C@H](OC(C)=O)[C@]4(CC)C=CCN5CC[C@]31[C@@H]54)C2 [VINORELBINE]
Not Active: IC50 [1] | Ki [1] | IC50 [2] | IC50 [3] | Ki [3] | IC50 (Melanocortin receptor 4) | IC50 [4] | Ki [4] | IC50 [5] | IC50 [6]

CADMIUM DICHLORIDE
Not Active: IC50 [1] | Ki [1] | IC50 [2] | Ki [2] | IC50 [3] | Ki [3] | IC50 (Melanocortin receptor 4) | Ki (Melanocortin receptor 4) | IC50 [4] | Ki [4] | IC50 [5] | Ki [5] | IC50 (Estrogen receptor beta) | Ki (Estrogen receptor beta)
